# Assay results published in patent US20110319392A1, “Thiazole Sulfonamide And Oxazole Sulfonamide Kinase Inhibitors” (priority 2009, published 2011).
# How the values were obtained:
# EGFR = target: T1, EGFR (Homo sapiens, UniProt P00533); assay: EGFR substrate phosphorylation assay (HTRF); type: biochemical
# T1 construct: made in house; host or cells: baculovirus expression system
# How it was run: (§1)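 Baculovirus-expressed EGFR (0.8 nM) or ErbB2 (10 nM) in enzyme mix, preincubated 1 h at 20 °C with compound (0.00027–47.6 μM final), then 90 min at 20 °C with substrate mix of 20 μM ATP, 0.8 uM biotinylated Peptide C, MnCl2, MOPS pH 7.5. Phosphotyrosine by HTRF; pIC50 reported.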
# ErbB2 = target: T2, ErbB2 (Homo sapiens, UniProt P04626); assay: ErbB-2 substrate phosphorylation assay (HTRF); type: biochemical
# T2 construct: made in house; host or cells: baculovirus expression system
# T2 sequence (P04626 23-1255): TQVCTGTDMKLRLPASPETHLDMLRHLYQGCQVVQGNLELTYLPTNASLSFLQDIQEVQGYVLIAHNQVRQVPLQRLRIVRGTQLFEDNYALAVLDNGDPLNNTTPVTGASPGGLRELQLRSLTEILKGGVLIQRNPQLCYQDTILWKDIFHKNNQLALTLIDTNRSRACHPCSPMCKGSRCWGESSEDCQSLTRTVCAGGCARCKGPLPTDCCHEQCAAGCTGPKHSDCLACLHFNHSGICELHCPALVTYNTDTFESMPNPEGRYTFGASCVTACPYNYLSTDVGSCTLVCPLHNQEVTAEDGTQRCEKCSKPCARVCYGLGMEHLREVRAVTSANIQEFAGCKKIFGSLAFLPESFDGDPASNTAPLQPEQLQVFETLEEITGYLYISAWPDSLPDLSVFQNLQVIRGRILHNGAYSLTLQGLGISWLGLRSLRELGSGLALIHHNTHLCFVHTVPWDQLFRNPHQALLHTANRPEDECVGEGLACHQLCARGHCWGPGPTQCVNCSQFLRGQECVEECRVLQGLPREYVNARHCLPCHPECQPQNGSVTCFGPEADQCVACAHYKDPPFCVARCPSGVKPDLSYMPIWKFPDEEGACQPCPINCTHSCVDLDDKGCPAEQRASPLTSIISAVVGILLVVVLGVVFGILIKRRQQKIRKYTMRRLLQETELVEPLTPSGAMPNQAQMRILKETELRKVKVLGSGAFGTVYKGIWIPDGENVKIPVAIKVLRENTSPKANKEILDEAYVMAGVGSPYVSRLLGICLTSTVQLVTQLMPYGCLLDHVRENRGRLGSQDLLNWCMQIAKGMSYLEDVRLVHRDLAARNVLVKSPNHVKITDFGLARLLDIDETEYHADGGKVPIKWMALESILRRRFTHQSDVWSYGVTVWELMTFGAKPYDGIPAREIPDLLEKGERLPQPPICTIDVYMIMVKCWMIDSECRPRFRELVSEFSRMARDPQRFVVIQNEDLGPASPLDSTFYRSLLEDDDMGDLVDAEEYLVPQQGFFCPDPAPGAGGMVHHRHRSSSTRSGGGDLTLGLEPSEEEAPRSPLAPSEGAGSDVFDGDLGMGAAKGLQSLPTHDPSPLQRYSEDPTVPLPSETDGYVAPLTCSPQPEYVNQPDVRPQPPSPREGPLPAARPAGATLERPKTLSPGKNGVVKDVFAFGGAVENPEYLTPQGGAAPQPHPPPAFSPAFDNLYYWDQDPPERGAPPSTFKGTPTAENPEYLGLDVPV
# How it was run: as §1
# T1 sequence (P00533 25-1210): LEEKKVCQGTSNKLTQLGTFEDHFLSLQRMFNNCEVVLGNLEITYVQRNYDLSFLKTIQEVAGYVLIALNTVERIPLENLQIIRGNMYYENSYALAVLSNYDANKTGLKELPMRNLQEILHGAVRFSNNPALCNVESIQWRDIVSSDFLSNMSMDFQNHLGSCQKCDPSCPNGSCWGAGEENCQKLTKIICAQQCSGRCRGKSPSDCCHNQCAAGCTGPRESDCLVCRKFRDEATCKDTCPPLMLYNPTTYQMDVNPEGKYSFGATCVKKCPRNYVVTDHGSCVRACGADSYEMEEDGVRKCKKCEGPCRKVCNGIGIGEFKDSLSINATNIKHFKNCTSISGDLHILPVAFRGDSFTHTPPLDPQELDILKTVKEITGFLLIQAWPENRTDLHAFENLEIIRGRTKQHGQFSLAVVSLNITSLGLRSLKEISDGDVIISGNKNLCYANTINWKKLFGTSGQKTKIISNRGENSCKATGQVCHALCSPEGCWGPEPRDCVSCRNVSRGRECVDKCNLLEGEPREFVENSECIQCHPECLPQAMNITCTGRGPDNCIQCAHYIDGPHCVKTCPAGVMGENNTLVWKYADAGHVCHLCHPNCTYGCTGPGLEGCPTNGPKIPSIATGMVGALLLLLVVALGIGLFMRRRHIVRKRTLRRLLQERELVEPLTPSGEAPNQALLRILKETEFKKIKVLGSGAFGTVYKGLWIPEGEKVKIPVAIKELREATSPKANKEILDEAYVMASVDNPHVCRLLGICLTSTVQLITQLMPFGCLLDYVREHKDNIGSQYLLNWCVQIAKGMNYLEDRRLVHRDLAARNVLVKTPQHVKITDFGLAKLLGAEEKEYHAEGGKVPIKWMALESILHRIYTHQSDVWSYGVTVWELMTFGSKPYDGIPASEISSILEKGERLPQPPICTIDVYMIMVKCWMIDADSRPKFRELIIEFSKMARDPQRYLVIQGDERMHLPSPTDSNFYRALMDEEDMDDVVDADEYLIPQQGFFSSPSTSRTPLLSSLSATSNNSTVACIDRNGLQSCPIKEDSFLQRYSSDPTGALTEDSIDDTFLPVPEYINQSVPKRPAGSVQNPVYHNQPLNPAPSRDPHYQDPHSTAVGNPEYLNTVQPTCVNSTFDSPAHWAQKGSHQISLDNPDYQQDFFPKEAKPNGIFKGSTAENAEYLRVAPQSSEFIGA
Compound,IC50 (EGFR) [nM],IC50 (ErbB2) [nM]
CC(C)c1nc(-c2cccc(NS(=O)(=O)c3c(F)cccc3F)c2F)c(-c2ccnc(Nc3ccc(N4CCOCC4)nc3)n2)s1 [Example 123],> 1000,> 1000
Cc1cc(N2CCOCC2)ncc1Nc1nccc(-c2sc(N3CCCC3)nc2-c2cccc(NS(=O)(=O)c3c(F)cccc3F)c2)n1 [Example 124],> 1000,100 to 1000
CN1CCN(c2nc(-c3ccc(F)c(NS(=O)(=O)c4c(F)cccc4F)c3)c(-c3ccnc(Nc4ccc(N5CCOCC5)nc4)n3)s2)CC1 [Example 126],100 to 1000,100 to 1000
O=S(=O)(Nc1cc(-c2nc(N3CCOCC3)sc2-c2ccnc(Nc3ccc4c(c3)OCCO4)n2)ccc1F)c1c(F)cccc1F [Example 127],100 to 1000,100 to 1000
COc1cc(N2CCN(CCS(C)(=O)=O)CC2)c(C)cc1Nc1nccc(-c2sc(N3CCOCC3)nc2-c2cccc(NS(=O)(=O)c3c(F)cccc3F)c2)n1 [Example 128],< 100,< 100
CS(=O)(=O)c1cccc(Nc2nccc(-c3sc(N4CCOCC4)nc3-c3cccc(NS(=O)(=O)c4c(F)cccc4F)c3F)n2)c1 [Example 130],> 1000,100 to 1000
Cc1cc(N2CCN(CCS(C)(=O)=O)CC2)ncc1Nc1nccc(-c2sc(C(C)C)nc2-c2cccc(NS(=O)(=O)c3c(F)cccc3F)c2)n1 [Example 131],> 1000,100 to 1000
Cc1nc(-c2cccc(NS(=O)(=O)c3c(F)cccc3F)c2)c(-c2ccnc(Nc3ccc(N4CCOCC4)nc3)n2)s1 [Example 133],> 1000,> 1000
CS(=O)(=O)c1cccc(Nc2nccc(-c3sc(N4CCOCC4)nc3-c3cccc(NS(=O)(=O)c4c(F)cccc4F)c3Cl)n2)c1 [Example 145],> 1000,> 1000
O=S(=O)(Nc1cccc(-c2nc(N3CCOCC3)sc2-c2ccnc(Nc3ccc(N4CCOCC4)nc3)n2)c1Cl)c1c(F)cccc1F [Example 146],> 1000,> 1000
O=S(=O)(Nc1cccc(-c2nc(N3CCCCC3)sc2-c2ccnc(Nc3ccc(N4CCOCC4)nc3)n2)c1)c1c(F)cccc1F [Example 151],> 1000,> 1000
CCNc1nc(-c2cccc(NS(=O)(=O)c3c(F)cccc3F)c2)c(-c2ccnc(Nc3ccc(N4CCOCC4)nc3)n2)s1 [Example 152],100 to 1000,100 to 1000
O=S1(=O)Cc2ccc(Nc3nccc(-c4sc(N5CCOCC5)nc4-c4cccc(NS(=O)(=O)c5c(F)cccc5F)c4F)n3)cc2C1 [Example 155],100 to 1000,100 to 1000
COc1ccc(S(C)(=O)=O)cc1Nc1nccc(-c2sc(N3CCOCC3)nc2-c2cccc(NS(=O)(=O)c3c(F)cccc3F)c2F)n1 [Example 157],> 1000,> 1000
Cc1cc(Nc2nccc(-c3sc(C(C)(C)C)nc3-c3cccc(NS(=O)(=O)c4c(F)cccc4F)c3F)n2)ccn1 [Example 159],> 1000,100 to 1000
O=S(=O)(Nc1cccc(-c2ncsc2-c2ccnc(Nc3ccc(N4CCOCC4)nc3)n2)c1)c1c(F)cccc1F [Example 162],100 to 1000,> 1000
CCNc1nc(-c2ccc(F)c(NS(=O)(=O)c3c(F)cccc3F)c2)c(-c2ccnc(Nc3ccc(N4CCOCC4)nc3)n2)s1 [Example 166],100 to 1000,< 100
CS(=O)(=O)CCN1CCN(c2ccc(Nc3nccc(-c4oc(N5CCCC5)nc4-c4cccc(NS(=O)(=O)c5c(F)cccc5F)c4F)n3)cc2F)CC1 [Example 167],100 to 1000,< 100
